# Laboratory results: US20230167068A1, “BENZOPYRAZOLE COMPOUND” (MEDSHINE DISCOVERY INC., priority 2019, published 2023)
# Like-named read-outs stand apart in the source and are kept apart here.
# Columns and labels:
# [1] = test system: human peripheral blood mononuclear cells TNF-α; test: Repression of TNF-α in human peripheral blood mononuclear cells (LPS, ELISA); assay type: cell-based; settings: PBMC, 3-fold diluted; for IC50: read-out: hPBMC IC50; for Emax: maximum effect value
# Procedure: Experimental purpose: To express the anti-inflammatory activity of the test compound at the cellular level according to the level of TNF-α in human peripheral blood mononuclear cells (hPBMC).
# • [0488] 1) The frozen cells were quickly thawed by continuous stirring in a 37° C. water bath. • [0489] 2) 25 mL of fresh pre-heated thawed culture medium was added to a 50 mL centrifuge tube. Then the cells were added gently, drop by drop. • [0490] 3) Cells were centrifuged at 2000 rpm for 10 min (ascending speed: 9, descending speed: 1). • [0491] 4) The supernatant was discarded and the cell particles were resuspended in 25 mL of freshly pre-heated RPMI 1640 culture medium.
# • [0493] 5) After thawing and resuscitating the suspended cells, the number of cells was counted and the total number of cells required for the experiment was calculated. • [0494] 6) The cell suspension was diluted with an appropriate volume of cell culture medium. • [0495] 7) The cell suspension was poured into a sterile disposable container. • [0496] 8) 100,000 cells/(100 µL) of cell suspension was transferred to each well of a 96-well plate. • [0497] 9) The cell plates were placed in humidified air, 5% CO2 incubator, 37° C. for 2 hours.
# […] In the second step, the serum-free culture medium was diluted 125 times, and the concentration of DMSO was 0.8%. Then 16.8 µL of the compound diluted in culture medium was transferred to a 100 µL cell plate, and the concentration of DMSO was 0.114%.
# After adding the compound, the cell plates were incubated in a 37° C. 5% CO2 incubator for 1 hour.
# In the first step, LPS was diluted with ultrapure water to a storage concentration of 1 mg/mL. In the second step, the storage concentration of LPS was diluted to 1 µg/mL in serum-free culture medium. In the third step, serum-free culture medium was 1666.666-fold diluted. Then 16.8 µL of LPS that has been diluted with culture medium was transferred to a 116.8 µL cell plate. At this time, the final concentration of DMSO was 0.1%. After adding LPS, the cell plate was put into a 37° C., 5% CO2 incubator and incubated for 18 hours.
# • [0505] 1. The TNF-α antibody was diluted to 1× in the coating solution, and then 100 µL per well was added to a 96-well high-binding performance plate, and the plate was sealed with a membrane and placed at 4° C. for 18 hours. • [0506] 2. 2000 mL of wash buffer was prepared to 1x for later use.
# • [0508] 3. After the plate was coated overnight, the coating solution was poured out and washed 3 times with 300 µL of washing buffer per well. • [0509] 4. After the plate was washed, 200 µL of sealing buffer was added to each well, and the plate was sealed with membrane. Incubated for one hour in a 25° C. incubator. • [0510] 5. The cell plates incubated for 18 hours were placed in a centrifuge for centrifugation, temperature: 25° C., speed: 2000 rpm, time: 10 min, ascending speed: 9, descending speed: 1. After centrifugation, 100 µL of cell supernatant from each well was transferred to a 3599 cell plate, and then placed in a 4° C. refrigerator for later use. • [0511] 6. The cell supernatant was diluted 40 times with sealing buffer and placed in a 4° C. refrigerator for later use, and the standard was also placed in a 4° C. refrigerator for later use. • [0512] 7. After the sealing was completed, the sealing solution was poured out and washed three times with 300 µL of washing buffer per well. • [0513] 8. The diluted cell supernatant samples and standards were added to the ELISA plate, and the plate was sealed with membrane. Then incubated for 2 hours in a 25° C. incubator. • [0514] 9. The liquid in the plate was poured out and washed 5 times with 300 µL of washing buffer per well. • [0515] 10. Antibodies were prepared and 100 µL was added to each well and the plate was sealed with sealing membrane. Then incubated for one hour in a 25° C. incubator. • [0516] 11. The liquid in the plate was poured out and washed 7 times with 300 µL of washing buffer per well. • [0517] 12. […]
# [2] = In vivo pharmacokinetic properties study in male SD rats; settings: rat, plasma, iv 2 mg/kg
# Procedure: Experimental purpose: The purpose of this study was to determine the pharmacokinetic parameters of compounds in male SD rats.
# Experimental methods: In this project, two male SD rats were intravenously administered with a dose of 2 mg/kg and a concentration of 0.4 mg/mL. Plasma samples were collected at 0 h (before administration) and 0.0833, 0.25, 0.5, 1, 2, 4, 6, 8, 24 h after administration. Then the collected samples were analyzed by LC-MS/MS and the data were collected. The collected analytical data were used to calculate the relevant pharmacokinetic parameters using Phoenix WinNonlin 6.3 software.
# CYP3A4 = target: T1, CYP3A4 (Homo sapiens, UniProt P08684); test: Human liver microsomal CYP repression experiment; assay type: in vitro ADME; settings: for repression on CYP3A4 (in words): conclusion on Table 3; for IC50: mixed human liver microsomes, 5-in-1 probe substrate
# T1 construct: incubation system containing human liver microsomes, probe substrates, and co-factors; tissue Corning Inc. or other suppliers; host or cells: mixed (pooled) human liver microsomes
# T1 sequence (P08684 whole entry): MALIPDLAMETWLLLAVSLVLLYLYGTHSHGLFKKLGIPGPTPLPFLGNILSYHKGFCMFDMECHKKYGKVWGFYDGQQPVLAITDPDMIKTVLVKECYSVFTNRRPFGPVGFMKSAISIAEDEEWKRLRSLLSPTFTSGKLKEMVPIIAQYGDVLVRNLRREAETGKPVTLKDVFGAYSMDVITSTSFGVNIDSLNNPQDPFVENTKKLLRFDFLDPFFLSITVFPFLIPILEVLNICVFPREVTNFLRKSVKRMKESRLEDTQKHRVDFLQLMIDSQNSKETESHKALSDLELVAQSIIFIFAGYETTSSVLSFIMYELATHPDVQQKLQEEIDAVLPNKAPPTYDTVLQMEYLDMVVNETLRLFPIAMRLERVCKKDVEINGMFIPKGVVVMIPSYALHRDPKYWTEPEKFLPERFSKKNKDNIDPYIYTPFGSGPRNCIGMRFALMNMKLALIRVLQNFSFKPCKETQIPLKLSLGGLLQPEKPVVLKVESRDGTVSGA
# Procedure: The purpose of the research project was to evaluate the repression of the test sample on human liver microsomal cytochrome P450 isoenzyme (CYP3A4) using a 5-in-1 probe substrate of CYP isoenzyme.
# Mixed human liver microsomes (HLM) were purchased from Corning Inc. (Steuben, New York, USA) or other suppliers and stored at temperatures below -70° C. before use.
# The diluted series concentration of the test sample was added to the incubation system containing human liver microsomes, probe substrates, and co-factors of the circulating system, and the control without the test sample but with solvent was used as the enzyme activity control (100%). The concentration of metabolites produced by the probe substrate in the sample was determined by liquid chromatography-tandem mass spectrometry (LC-MS/MS). Non-linear regression analysis of the mean percent activity of the test sample versus concentration was performed using SigmaPlot (V. 11). The IC50 values were calculated by a three- or four-parameter inverse logarithmic equation.
# [3] = test system: MMTV promoter luciferase reporter in HeLa cell line (GR transcription activation); test: MMTV transcription activation activity, luciferase reporter gene screening system (MMTV_GR transcription activation experiment); assay type: cell-based; settings: Homo sapiens
# From the text: The promoter of mouse mammary tumor virus (MMTV) contains specific binding sites for activating GRs (GREs). To determine the activity of the compounds, a reporter gene (luciferase) was inserted after the MMTV promoter, and this construct was expressed in a stable manner in the genome of the HeLa cell line. MMTV promoter was activated by the test compounds to induce the expression of luciferase, and its activity was detected by luminescence measurement.
# • [0442] 1) All the culture media were carefully aspirated, the cell layer was rinsed gently with an appropriate amount of DPBS, and then aspirated. • [0443] 2) An appropriate amount of 0.05% Typsine EDTA was added and incubated in a CO2 incubator for 3-5 minutes to digest the cells. • [0444] 3) The cells were resuspended with an appropriate amount of cell culture medium. • [0445] 4) The amount of cells required was calculated, and the cell concentration was 4×10^3 cells/well. • [0446] 5) The cell suspension was diluted with appropriate cell culture medium. • [0447] 6) Cell suspension was dispensed into a disposable sterile loading slot. • [0448] 7) Inoculated 30 µL per well into a 384-well plate. • [0449] 8) The cell plate was placed in a 37° C. 5% CO2 incubator for 18-24 hours.
# Compounds were diluted with DMSO to 1 mM, 0.25 mM, 0.0625 mM, 0.015625 mM, 0.0039 mM, 0.0009765 mM, 0.000244 mM, 0.000061 mM, 0.00001526 mM and 0.0000038125 mM, then diluted 25-fold with serum culture medium treated with activated carbon, and finally 4x concentration compound experimental plate was obtained, prepared before use.
# The final DMSO experimental concentration was 0.1%.
# MMTV_GR transcription activation activity experiment • [0458] 1) Inoculated cells: Fresh cells were inoculated into 384 white transparent bottom experimental plates at 4×10^3 cells/30 µL/well, and incubated at 37° C. 5% CO2 incubator for 24 hours. • [0459] 2) Compound preparation: The compound plate was prepared before the experiment, and the reference compound (dexamethasone) and the test compound of 4x concentration were prepared. Finally, the experimental plate of 4x concentration compound was obtained. • [0460] 3) Added compound: 10 µL of 4x compound was transferred with Bravo and added to cell plate. Incubated for 18 hours in a 37° C. 5% CO2 incubator. • [0461] 4) 30 µL of Bright-Glo fluorescent detection reagent was transferred to the cell plate. • [0462] 5) Centrifugal incubation for 2 minutes. • [0463] 6) The fluorescence value was measured with the Envision plate reader.
# Positive control: 1000 nM dexamethasone (0.1% DMSO)
# Negative control: 0.1% DMSO
# Test compound: Maximum concentration of 1000 nM, 4-fold dilution, 10 wells in total, repeated.
# Dexamethasone: Maximum concentration of 1000 nM, 4-fold dilution, 10 wells in total, repeated.
# The graphing software GraphPad Prism5 was used to create the concentration curves of the tested compounds and calculate the IC50 values.
Structure (SMILES),"IC50 ([1]; absolute IC50, test Top concentration 500 nM, 8 concentration (**)) [nM]","Emax ([1]; test Top concentration 500 nM, 8 concentration (**)) [%]",clearance [2] [mL/min/kg],half-life ([2]; read-out: T½ (converted)) [h],Vd ([2]; read-out: Vdss) [L/kg],repression on CYP3A4 (in words) (CYP3A4),IC50 (CYP3A4) [nM],"IC50 ([1]; absolute IC50, test Top concentration 1000 nM, 8 concentration (*)) [nM]","Emax ([1]; test Top concentration 1000 nM, 8 concentration (*)) [%]","Emax ([3]; HeLa, maximum effect value, positive control 1000 nM dexamethasone, read-out: TA (MMTV transcription activation activity) Effect) [%]","EC50 ([3]; absolute EC50, HeLa MMTV-luciferase cells, 18 h, max concentration 1000 nM, read-out: TA (MMTV transcription activation activity) EC50) [nM]"
"CC(C)[C@H](NC(=O)C(C)(F)F)[C@H](Oc1ccc2c(cnn2-c2ccc(=O)n(C)c2)c1)c1ccccc1 [AZD9567, reference compound]",57.4,54.6,4.25,1.99,0.56,moderate repression on CYP3A4,2950,–,–,–,–
C[C@H](NC(=O)C(C)(F)F)[C@H](Oc1ccc2c(cnn2-c2ccc3nncn3c2)c1)c1ccccc1 [WX022],–,–,–,–,–,–,–,2.42,90,101,1.59
C[C@H](NC(=O)C(C)(F)F)[C@H](Oc1ccc2c(cnn2-c2cn(C)nn2)c1)c1ccccc1 [WX053],–,–,–,–,–,significantly improve the repression of CYP3A4,15700,–,–,–,–
